Experimental data reported in US20140121256A1, “METHOD OF TREATING MUSCULAR WEAKNESS COMPRISING ADMINISTERING A COMPOSITION COMPRISING AN EFFECTIVE AMOUNT OF HISTAMINE AND/OR SEROTONIN” (BEECH TREE LABS, INC., priority 2012, published 2014).

Tests used:
[1] = test system: C57BL/10SCSN-Dmd^mdx/J mice; assay: Grip strength tests (triangle and mesh) in mdx mouse model of DMD; type: in vivo; conditions: 1×, 4×, 8×, twice daily
Source text: Female mouse strain C57BL/10SCSN-Dmd^mdx/J (Jackson laboratories) is a strain of mice that is most similar in affliction to humans with DMD. The mdx mutation of Dmd is recessive and heterozygous females are visually indistinguishable from wild-type mice. […] One of the drawbacks of this mouse model is that by six weeks (10 weeks of age) the afflicted mice mimic the wild type control mice. This is attributed to the compensatory function of the dystrophin-related protein utrophin, which is highly up regulated in regenerating muscle fibers in adult Dmd^mdx mutants. The histamine and serotonin formulation was evaluated using this mouse model to determine its effects on DMD.
The first experiment conducted focused on whether any difference could be detected in mice receiving the histamine and serotonin formulation vs. control.
Injections started the following day.
Measurements to determine effectiveness of histamine and serotonin formulation were conducted using two different methods: 1. a wire hang test was utilized to see how long the mice were able to hang onto a wire before releasing and falling, and 2. a grip strength meter device (Columbus Instruments) was used to measure the peak force exerted by the animal when pulled. […]
For both of the grip strength tests, ten measurements were taken per mouse and the average was recorded.

[2] = test system: normal human BioArtificial Muscles (mBAMs engineered from human skeletal myoblasts); assay: Tetanic (active) force of mBAMs, MyoForce Analysis System; type: cell-based; conditions: 80 nM; after 3-4 days of drug treatment; p<0.001
Description: According to this example, a composition comprising histamine and serotonin was administered at 6 different concentrations on normal human BioArtificial Muscles (mBAMs engineered from human skeletal rmyoblasts) for effects on strength (active force generation) and injury using Myomics' MyoForce Analysis System (MFAS™).
A solution comprising 200 times the dosage of the histamine and serotonin present in a typical therapeutic drop (i.e., 1 mg histamine and 16 mg serotonin in PBS) stored at 4° C. was administered to a cell culture comprising human skeletal muscle cells previously isolated from a normal (disease-free) person were used for this study. Cells were expanded in culture in a Growth Medium optimized for human skeletal muscle (SKGM/15) for 5 days before engineering into bioartificial muscles (mBAMs). On the day of engineering, mBAMs, cells were trypsinized and counted following standard laboratory protocols.
A sterile 96 well MyoForce plate was used for tissue engineering the mBAMs. Myomics' Robotic Tissue Engineering Platform was used to engineer 72 mBAMs in approximately 10 minutes by mixing cells with an extracellular matrix solution and casting in the plate wells. The plate containing the mBAMs was maintained for 2 days at 37° C. in SKGM/15, then incubated in an optimized differentiation medium for the remainder of the experiment. […]

## NCCc1c[nH]c2ccc(O)cc12 [serotonin, 5-hydroxytryptamine]
[1]; fourth experiment, serotonin alone 0.4×
  grip strength tests vs PBS controls: no statistically significant differences

## NCCc1c[nH]cn1 [histamine]
[1]; third experiment, histamine alone 0.4×
  triangle and mesh grip strength vs PBS control: improves performance in both the Triangle and Mesh tests

## CC(=O)OCC(=O)[C@@]12N=C(C)O[C@@H]1C[C@H]1[C@@H]3CCC4=CC(=O)C=C[C@]4(C)[C@H]3[C@@H](O)C[C@@]12C [deflazacort]
[2]
  increase in tetanic force compared to untreated controls: 32%
